Measured values from patent publication US20140286964A1, “Methods for Identifying Janus Kinase (JAK) Modulators for Therapeutics” (NEW YORK UNIVERSITY, priority 2011, published 2014).

Assays:
Jak2 JH2-WT = biological target: T1, Jak2 JH2-WT (Homo sapiens, UniProt O60674, F794H/W659A/W777A); experiment: mant-ATP binding (decrease of tryptophan emission by FRET) to JH2-WT; conditions: fluorescent ATP analog mant-ATP, FIG. 5
T1 construct: 6xHis (N); made in house; host or cells: baculovirus-infected Sf9 cells
T1 sequence (O60674 536-812 W659A/W777A/F794H): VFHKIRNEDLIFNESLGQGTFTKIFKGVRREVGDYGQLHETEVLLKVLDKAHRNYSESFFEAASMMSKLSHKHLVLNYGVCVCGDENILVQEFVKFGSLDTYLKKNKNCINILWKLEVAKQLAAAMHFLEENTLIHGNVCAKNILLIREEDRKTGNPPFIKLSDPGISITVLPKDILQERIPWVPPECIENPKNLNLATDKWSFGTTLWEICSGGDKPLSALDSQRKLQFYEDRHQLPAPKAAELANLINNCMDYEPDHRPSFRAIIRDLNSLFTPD
Method: FIG. 5 depicts ATP binding to JH2-WT. The decrease of the tryptophan emission signal at 340 nm (excitation wavelength at 285 nm) resulting from FRET upon mant-ATP binding to JH2 was measured as a function of mant-ATP concentration. The plotted data points are an average of two experiments.
(§1) As a first step in characterizing the catalytic properties of Jak2 JH2, dissociation constants (Kd values) for ATP binding to JH2-WT and -VF were obtained using the fluorescent ATP analog mant-ATP.

Jak2 JH2-VF (V617F) = biological target: T2, Jak2 JH2-VF (V617F) (Homo sapiens, UniProt O60674, F794H/V617F/W777A); experiment: mant-ATP binding to JH2-VF; conditions: fluorescent ATP analog mant-ATP
T2 construct: 6xHis (N); made in house; host or cells: baculovirus-infected Sf9 cells
T2 sequence (O60674 536-812 V617F/W777A/F794H): as the sequence (O60674 536-812 W659A/W777A/F794H) above, with V82F, A124W counted along it
Text: as §1

[1] = biological target: T3, insulin receptor kinase (phosphorylated, active form) (Homo sapiens, UniProt P06213); experiment: mant-ATP binding to insulin receptor kinase (comparison)
T3 construct: the insulin receptor kinase (phosphorylated, active form)
T3 sequence (P06213 1023-1298 limits assumed): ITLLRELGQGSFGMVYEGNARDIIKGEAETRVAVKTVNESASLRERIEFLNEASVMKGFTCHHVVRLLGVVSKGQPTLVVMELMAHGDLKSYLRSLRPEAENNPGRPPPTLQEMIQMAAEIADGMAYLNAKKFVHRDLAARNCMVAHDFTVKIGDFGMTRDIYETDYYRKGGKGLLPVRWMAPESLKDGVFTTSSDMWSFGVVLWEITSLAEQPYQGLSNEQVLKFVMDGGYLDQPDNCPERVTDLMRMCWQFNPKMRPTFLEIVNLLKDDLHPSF

JAK2 JH2 (JH2-Peak2) = biological target: T4, JAK2 JH2 (JH2-Peak2) (Homo sapiens, UniProt O60674); experiment: Mant-ATP binding assay (fluorescence) with JH2-Peak2
T4 construct: We produced and purified human Jak2 JH2, residues 513-824, as described previously; 6xHis (C, cleaved yes); made in house; host or cells: Sf9 insect cells (baculovirus, pFASTBAC1)
T4 sequence (O60674 513-824): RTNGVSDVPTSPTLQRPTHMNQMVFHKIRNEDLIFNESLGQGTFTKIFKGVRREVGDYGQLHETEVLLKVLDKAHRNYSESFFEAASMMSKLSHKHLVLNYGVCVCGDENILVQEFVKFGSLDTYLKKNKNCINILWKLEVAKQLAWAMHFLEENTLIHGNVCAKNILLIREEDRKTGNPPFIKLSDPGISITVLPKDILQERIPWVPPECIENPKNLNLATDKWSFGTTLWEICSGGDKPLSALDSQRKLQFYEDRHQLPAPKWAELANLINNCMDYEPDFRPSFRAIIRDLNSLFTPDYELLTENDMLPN
Method: FIG. 13 provides an analysis of JAK2 JH2 autophosphorylation and ATP binding activity. (a) Time-course kinase assay of purified JH2-Peak1 and JH2-Peak2. (b) Time-course kinase assay of purified JH2 S523A and Y570F mutants compared to JH2-Peak2. (c) Fluorescence measurement of ATP binding assay of JAK2 JH2-Peak2. (d) Kd measurement of mant-ATP binding to JH2-Peak2. Graph, mean±s.d. of three independent experiments.
The fluorescence intensity of mant-ATP (Invitrogen) complex with JH2 was measured using FluoroMax-2 spectrofluorimeter. Mant-ATP (1 μM) was added to a buffer solution (20 mM TRIS-HCl, pH 8, 200 mM NaCl, 10% (v/v) glycerol and 0.5 mM TCEP) along with 5 mM MnCl2 and 1 μM JH2 (from peak 2 fraction). The excitation and emission wavelengths were 280 nm and 440 nm, respectively, and emission was scanned from 400-500 nm. For kd measurements, increased concentration of purified JH2 (0.25 μM-6 μM) was added to buffer solution with 5 mM MnCl2 and 1 μM mant-ATP.
If the pseudokinase domain of JAK2 is an active protein kinase, utilizing ATP as a phosphate donor, it should bind ATP with a physiologic Kd value. The binding of ATP to JH2 of JAK2 was evaluated using the fluorescent ATP-analogue mant [2′-(3′)—O—(N-methylanthraniloy)]-ATP. […] Mant-ATP bound to JH2 with a Kd of ˜1 μM (FIG. 13d), which is ˜10% of the reported Kd for JH1 of JAK2 (Hall, et al., Protein Expr. Purif. 2010; 69: 54-63). […]

Question: Which Kd (Jak2 JH2-WT) does the source give for “mant [2′-(3′)—O—(N-methylanthraniloy)]-ATP [mant-ATP]” here?
Answer: 0.082 µM

Question: And the Kd (Jak2 JH2-VF (V617F))?
Answer: 0.084 µM

Question: And the “Kd fold higher than for JH2” value ([1]; insulin receptor kinase Kd versus Jak2 JH2 Kd)?
Answer: ~30 fold

Question: What about the Kd ([1]; insulin receptor kinase, phosphorylated active form, same measurement) of the same substance?
Answer: 14 µM

Question: And the Kd (JAK2 JH2 (JH2-Peak2); JH2-Peak2, 5 mM MnCl2, 1 μM mant-ATP, JH2 0.25-6 μM, FIG. 13d)?
Answer: ~1 µM

Question: And the “Kd as percentage of the reported Kd for JH1 of JAK2” value (JAK2 JH2 (JH2-Peak2); JH2 Kd versus literature Kd for JH1 (Hall et al. 2010))?
Answer: ~10%
